pEC50, pIC50: −log10 of the molar value. Where a SMILES comes first, the peptide text is derived from it. [ ]: non-standard residue; d: D form. Arg(Me) = CNC(=N)NCCC[C@H](N)C(=O)O; d3Pal = N[C@H](Cc1cccnc1)C(=O)O; azaGly = NNC(=O)O
Experiments:
[1] = target: T1, RAF proto-oncogene serine/threonine-protein kinase (Homo sapiens, UniProt P04049); assay: Affinity Phenotypic Cellular interaction: (Western blot assay (phosphorylation of ERK in SKMEL2 cells expressing BRAF wt/N-Ras2(Q61R))) EUB0000655a RAF1; format: functional, cell-based, SK-MEL-2; set-up: mode of action Inhibitor, recommended concentration 1 uM
T1 sequence (P04049 whole entry): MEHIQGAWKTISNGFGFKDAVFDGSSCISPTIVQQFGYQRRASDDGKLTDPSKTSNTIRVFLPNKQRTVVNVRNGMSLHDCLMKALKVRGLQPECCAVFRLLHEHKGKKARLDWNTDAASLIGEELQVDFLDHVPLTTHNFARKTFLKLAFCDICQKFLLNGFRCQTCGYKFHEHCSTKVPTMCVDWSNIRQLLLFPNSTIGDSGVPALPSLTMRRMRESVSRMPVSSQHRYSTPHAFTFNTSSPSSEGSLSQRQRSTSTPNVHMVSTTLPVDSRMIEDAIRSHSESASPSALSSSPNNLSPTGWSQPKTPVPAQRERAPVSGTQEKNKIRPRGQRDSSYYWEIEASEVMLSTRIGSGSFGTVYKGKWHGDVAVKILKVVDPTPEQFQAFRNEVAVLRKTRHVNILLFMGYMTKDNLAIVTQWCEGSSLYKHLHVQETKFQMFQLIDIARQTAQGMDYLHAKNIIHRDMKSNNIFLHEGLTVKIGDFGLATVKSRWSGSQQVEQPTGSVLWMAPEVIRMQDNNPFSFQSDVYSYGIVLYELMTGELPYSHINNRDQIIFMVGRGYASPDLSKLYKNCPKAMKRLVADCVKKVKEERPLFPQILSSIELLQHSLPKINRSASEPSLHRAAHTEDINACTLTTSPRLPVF

[2] = target: T1, RAF proto-oncogene serine/threonine-protein kinase; assay: Affinity Phenotypic Cellular interaction: (Western blot assay (phosphorylation of ERK in PREC cells expressing BRAF/RAS wt)) EUB0000655a RAF1; format: functional, cell-based; set-up: mode of action Inhibitor, recommended concentration 1 uM
[3] = target: T1, RAF proto-oncogene serine/threonine-protein kinase; assay: Affinity Phenotypic Cellular interaction: (Western blot assay (phosphorylation of ERK in HMEC cells expressing BRAF/RAS wt)) EUB0000655a RAF1; format: functional, cell-based; set-up: mode of action Inhibitor, recommended concentration 1 uM
[4] = target: T1, RAF proto-oncogene serine/threonine-protein kinase; assay: Affinity Phenotypic Cellular interaction: (Western blot assay (phosphorylation of ERK in HFF cells expressing BRAF/RAS wt)) EUB0000655a RAF1; format: functional, cell-based; set-up: mode of action Inhibitor, recommended concentration 1 uM
[5] = target: T1, RAF proto-oncogene serine/threonine-protein kinase; assay: Affinity Phenotypic Cellular interaction: (Western blot assay (phosphorylation of ERK in […] cells expressing BRAF V600E/RAS wt)) EUB0000655a RAF1; format: functional, cell-based, COLO 205; set-up: mode of action Inhibitor, recommended concentration 1 uM
[6] = target: T1, RAF proto-oncogene serine/threonine-protein kinase; assay: Affinity Phenotypic Cellular interaction: (Western blot assay (phosphorylation of ERK in HT-29 cells expressing BRAF V600E/RAS wt)) EUB0000655a RAF1; format: functional, cell-based; set-up: mode of action Inhibitor, recommended concentration 1 uM
[7] = target: T1, RAF proto-oncogene serine/threonine-protein kinase; assay: Affinity Phenotypic Cellular interaction: (Western blot assay (phosphorylation of ERK in HT-1080 cells expressing BRAF wt/N-Ras2(Q61K))) EUB0000655a RAF1; format: functional, cell-based; set-up: mode of action Inhibitor, recommended concentration 1 uM
[8] = target: T1, RAF proto-oncogene serine/threonine-protein kinase; assay: Affinity Phenotypic Cellular interaction: (Western blot assay (phosphorylation of ERK in MALME-3M cells expressing BRAF V600E/RAS wt)) EUB0000655a RAF1; format: functional, cell-based; set-up: mode of action Inhibitor, recommended concentration 1 uM
[9] = target: T1, RAF proto-oncogene serine/threonine-protein kinase; assay: Affinity Phenotypic Cellular interaction: (Western blot assay (phosphorylation of ERK in HCT-116 cells expressing BRAF wt/K-Ras2(G13D))) EUB0000655a RAF1; format: functional, cell-based; set-up: mode of action Inhibitor, recommended concentration 1 uM
[10] = target: T1, RAF proto-oncogene serine/threonine-protein kinase; assay: Affinity Phenotypic Cellular interaction: (Western blot assay (phosphorylation of ERK in A375P cells expressing BRAF V600E/RAS wt)) EUB0000655a RAF1; format: functional, cell-based; set-up: mode of action Inhibitor, recommended concentration 1 uM
[11] = target: Mitotic checkpoint serine/threonine-protein kinase BUB1 (Homo sapiens, UniProt O43683); format: functional, cell-based, HeLa
[12] = target: KiSS-1 receptor (Homo sapiens, UniProt Q969F8); assay: Affinity Phenotypic Cellular interaction: (Agonist activity for hGPR54 (C-terminal ethyl amide)) EUB0001072a KISS1R; format: functional; set-up: mode of action Negative control for KISS1-305, recommended concentration 1 uM
[13] = target: Cyclin-dependent kinase 13 (Homo sapiens, UniProt Q14004); assay: Affinity Phenotypic Cellular interaction: (In-Cell western blot (using MDA-MB-231 cells)) EUB0001632a CDK13; format: functional, cell-based; set-up: mode of action Inhibitor, recommended concentration 1 uM
[14] = target: Inhibitor of nuclear factor kappa-B kinase subunit beta (Homo sapiens, UniProt O14920); assay: Affinity Phenotypic Cellular interaction: (Inhibition of expression of ICAM-1 in HeLa cells) EUB0001492b IKBKB; format: functional, cell-based; set-up: mode of action Inhibitor, recommended concentration 1 uM
[15] = target: T2, Cyclin-dependent kinase 8 (Homo sapiens, UniProt P49336); assay: Affinity Phenotypic Cellular interaction: (Reporter-based luciferase assay (in PA-1 cell line bearing activating WNT-pathway mutations)) EUB0001623a CDK8; format: functional; set-up: mode of action Inhibitor, recommended concentration 100 nM
T2 sequence (P49336 whole entry, looked up, change not shown): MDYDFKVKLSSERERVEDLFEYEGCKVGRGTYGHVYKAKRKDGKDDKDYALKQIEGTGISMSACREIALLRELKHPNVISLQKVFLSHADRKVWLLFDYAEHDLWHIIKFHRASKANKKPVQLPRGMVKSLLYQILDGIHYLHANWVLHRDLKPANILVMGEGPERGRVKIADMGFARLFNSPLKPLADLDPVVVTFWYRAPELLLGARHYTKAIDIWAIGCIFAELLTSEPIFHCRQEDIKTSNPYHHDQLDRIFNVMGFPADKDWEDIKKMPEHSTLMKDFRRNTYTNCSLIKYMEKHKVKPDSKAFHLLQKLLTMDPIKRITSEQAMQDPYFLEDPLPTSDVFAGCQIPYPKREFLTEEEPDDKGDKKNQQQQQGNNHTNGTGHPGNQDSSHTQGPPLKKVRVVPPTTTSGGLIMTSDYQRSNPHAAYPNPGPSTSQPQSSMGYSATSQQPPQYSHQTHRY

[16] = target: T2, Cyclin-dependent kinase 8; assay: Affinity Phenotypic Cellular interaction: (Reporter-based luciferase assay (in COLO205 (APC mutant) bearing activating WNT-pathway mutations)) EUB0001623a CDK8; format: functional, cell-based; set-up: mode of action Inhibitor, recommended concentration 100 nM; conditions: colo 205
[17] = target: T2, Cyclin-dependent kinase 8; assay: Affinity Phenotypic Cellular interaction: (Reporter-based luciferase assay (in LS174T cell line (xcexb2-catenin mutant) bearing activating WNT-pathway mutations)) EUB0001623a CDK8; format: functional; set-up: mode of action Inhibitor, recommended concentration 100 nM
[18] = target: T3, Casein kinase I isoform alpha (Homo sapiens, UniProt P48729); format: functional, cell-based, T-REx-293
T3 sequence (P48729 whole entry, canonical isoform): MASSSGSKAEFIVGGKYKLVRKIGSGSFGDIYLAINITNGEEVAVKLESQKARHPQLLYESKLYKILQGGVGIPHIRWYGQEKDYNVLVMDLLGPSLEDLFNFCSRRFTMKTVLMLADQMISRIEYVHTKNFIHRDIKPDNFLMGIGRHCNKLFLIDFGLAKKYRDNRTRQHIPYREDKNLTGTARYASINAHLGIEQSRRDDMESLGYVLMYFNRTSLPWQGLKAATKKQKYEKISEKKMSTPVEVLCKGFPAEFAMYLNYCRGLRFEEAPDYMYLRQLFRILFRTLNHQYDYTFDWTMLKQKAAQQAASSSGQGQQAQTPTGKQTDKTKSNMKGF

[19] = target: T4, Casein kinase I isoform delta (Homo sapiens, UniProt P48730); assay: Affinity Phenotypic Cellular interaction: (Western Blot assay (inhibition of CSNK1D/E-mediated phosphorylation of DVL3, analyzed by change in phosphorylation-dependent mobility shift)) EUB0001205a CSNK1D; format: functional; set-up: mode of action Inhibitor, recommended concentration 1 uM
T4 sequence (P48730 whole entry, canonical isoform): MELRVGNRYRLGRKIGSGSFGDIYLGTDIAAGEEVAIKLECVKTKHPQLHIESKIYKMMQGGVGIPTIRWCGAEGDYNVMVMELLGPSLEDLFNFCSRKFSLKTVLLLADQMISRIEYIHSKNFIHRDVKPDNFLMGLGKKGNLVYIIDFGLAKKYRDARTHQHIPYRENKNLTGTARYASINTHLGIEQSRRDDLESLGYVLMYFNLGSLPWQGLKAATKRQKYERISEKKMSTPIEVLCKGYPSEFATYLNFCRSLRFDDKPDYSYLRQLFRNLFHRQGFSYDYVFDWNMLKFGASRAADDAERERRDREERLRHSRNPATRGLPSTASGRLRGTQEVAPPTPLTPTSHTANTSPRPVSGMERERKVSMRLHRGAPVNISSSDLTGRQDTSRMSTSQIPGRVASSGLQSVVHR

[20] = target: T3, Casein kinase I isoform alpha; format: functional
[21] = target: T3, Casein kinase I isoform alpha; assay: Affinity Phenotypic Cellular interaction: (Western Blot assay (inhibition of CSNK1D/E-mediated phosphorylation of DVL3, analyzed by change in phosphorylation-dependent mobility shift)) EUB0001205a CSNK1A1; format: functional; set-up: mode of action Inhibitor, recommended concentration 1 uM
[22] = target: T5, Casein kinase I isoform epsilon (Homo sapiens, UniProt P49674); format: functional
T5 sequence (P49674 whole entry, canonical isoform): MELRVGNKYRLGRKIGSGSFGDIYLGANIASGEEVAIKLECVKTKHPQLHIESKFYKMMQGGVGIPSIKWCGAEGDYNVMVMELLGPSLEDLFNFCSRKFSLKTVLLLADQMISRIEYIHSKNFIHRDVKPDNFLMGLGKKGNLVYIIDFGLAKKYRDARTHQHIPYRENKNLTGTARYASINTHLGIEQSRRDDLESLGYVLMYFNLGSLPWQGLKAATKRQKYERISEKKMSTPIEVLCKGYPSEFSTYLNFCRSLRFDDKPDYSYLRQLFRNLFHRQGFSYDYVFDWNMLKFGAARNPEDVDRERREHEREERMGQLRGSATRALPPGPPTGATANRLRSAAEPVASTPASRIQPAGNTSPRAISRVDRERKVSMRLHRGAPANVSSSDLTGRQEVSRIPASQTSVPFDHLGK

[23] = target: T5, Casein kinase I isoform epsilon; assay: Affinity Phenotypic Cellular interaction: (Western Blot assay (inhibition of CSNK1D/E-mediated phosphorylation of DVL3, analyzed by change in phosphorylation-dependent mobility shift)) EUB0001205a CSNK1E; format: functional; set-up: mode of action Inhibitor, recommended concentration 1 uM
[24] = target: T4, Casein kinase I isoform delta; format: functional
[25] = target: Interleukin-1 receptor-associated kinase 4 (Homo sapiens, UniProt Q9NWZ3); assay: Affinity Phenotypic Cellular interaction: (R848-induced IL-6 production in human whole blood) EUB0001558a IRAK4; format: functional, tissue-based; set-up: mode of action Inhibitor, recommended concentration 1 uM
[26] = target: T6, Leucine-rich repeat serine/threonine-protein kinase 2 (Homo sapiens, UniProt Q5S007, G2019S); format: functional, subcellular, Brain, lysate
T6 sequence (Q5S007 whole entry G2019S): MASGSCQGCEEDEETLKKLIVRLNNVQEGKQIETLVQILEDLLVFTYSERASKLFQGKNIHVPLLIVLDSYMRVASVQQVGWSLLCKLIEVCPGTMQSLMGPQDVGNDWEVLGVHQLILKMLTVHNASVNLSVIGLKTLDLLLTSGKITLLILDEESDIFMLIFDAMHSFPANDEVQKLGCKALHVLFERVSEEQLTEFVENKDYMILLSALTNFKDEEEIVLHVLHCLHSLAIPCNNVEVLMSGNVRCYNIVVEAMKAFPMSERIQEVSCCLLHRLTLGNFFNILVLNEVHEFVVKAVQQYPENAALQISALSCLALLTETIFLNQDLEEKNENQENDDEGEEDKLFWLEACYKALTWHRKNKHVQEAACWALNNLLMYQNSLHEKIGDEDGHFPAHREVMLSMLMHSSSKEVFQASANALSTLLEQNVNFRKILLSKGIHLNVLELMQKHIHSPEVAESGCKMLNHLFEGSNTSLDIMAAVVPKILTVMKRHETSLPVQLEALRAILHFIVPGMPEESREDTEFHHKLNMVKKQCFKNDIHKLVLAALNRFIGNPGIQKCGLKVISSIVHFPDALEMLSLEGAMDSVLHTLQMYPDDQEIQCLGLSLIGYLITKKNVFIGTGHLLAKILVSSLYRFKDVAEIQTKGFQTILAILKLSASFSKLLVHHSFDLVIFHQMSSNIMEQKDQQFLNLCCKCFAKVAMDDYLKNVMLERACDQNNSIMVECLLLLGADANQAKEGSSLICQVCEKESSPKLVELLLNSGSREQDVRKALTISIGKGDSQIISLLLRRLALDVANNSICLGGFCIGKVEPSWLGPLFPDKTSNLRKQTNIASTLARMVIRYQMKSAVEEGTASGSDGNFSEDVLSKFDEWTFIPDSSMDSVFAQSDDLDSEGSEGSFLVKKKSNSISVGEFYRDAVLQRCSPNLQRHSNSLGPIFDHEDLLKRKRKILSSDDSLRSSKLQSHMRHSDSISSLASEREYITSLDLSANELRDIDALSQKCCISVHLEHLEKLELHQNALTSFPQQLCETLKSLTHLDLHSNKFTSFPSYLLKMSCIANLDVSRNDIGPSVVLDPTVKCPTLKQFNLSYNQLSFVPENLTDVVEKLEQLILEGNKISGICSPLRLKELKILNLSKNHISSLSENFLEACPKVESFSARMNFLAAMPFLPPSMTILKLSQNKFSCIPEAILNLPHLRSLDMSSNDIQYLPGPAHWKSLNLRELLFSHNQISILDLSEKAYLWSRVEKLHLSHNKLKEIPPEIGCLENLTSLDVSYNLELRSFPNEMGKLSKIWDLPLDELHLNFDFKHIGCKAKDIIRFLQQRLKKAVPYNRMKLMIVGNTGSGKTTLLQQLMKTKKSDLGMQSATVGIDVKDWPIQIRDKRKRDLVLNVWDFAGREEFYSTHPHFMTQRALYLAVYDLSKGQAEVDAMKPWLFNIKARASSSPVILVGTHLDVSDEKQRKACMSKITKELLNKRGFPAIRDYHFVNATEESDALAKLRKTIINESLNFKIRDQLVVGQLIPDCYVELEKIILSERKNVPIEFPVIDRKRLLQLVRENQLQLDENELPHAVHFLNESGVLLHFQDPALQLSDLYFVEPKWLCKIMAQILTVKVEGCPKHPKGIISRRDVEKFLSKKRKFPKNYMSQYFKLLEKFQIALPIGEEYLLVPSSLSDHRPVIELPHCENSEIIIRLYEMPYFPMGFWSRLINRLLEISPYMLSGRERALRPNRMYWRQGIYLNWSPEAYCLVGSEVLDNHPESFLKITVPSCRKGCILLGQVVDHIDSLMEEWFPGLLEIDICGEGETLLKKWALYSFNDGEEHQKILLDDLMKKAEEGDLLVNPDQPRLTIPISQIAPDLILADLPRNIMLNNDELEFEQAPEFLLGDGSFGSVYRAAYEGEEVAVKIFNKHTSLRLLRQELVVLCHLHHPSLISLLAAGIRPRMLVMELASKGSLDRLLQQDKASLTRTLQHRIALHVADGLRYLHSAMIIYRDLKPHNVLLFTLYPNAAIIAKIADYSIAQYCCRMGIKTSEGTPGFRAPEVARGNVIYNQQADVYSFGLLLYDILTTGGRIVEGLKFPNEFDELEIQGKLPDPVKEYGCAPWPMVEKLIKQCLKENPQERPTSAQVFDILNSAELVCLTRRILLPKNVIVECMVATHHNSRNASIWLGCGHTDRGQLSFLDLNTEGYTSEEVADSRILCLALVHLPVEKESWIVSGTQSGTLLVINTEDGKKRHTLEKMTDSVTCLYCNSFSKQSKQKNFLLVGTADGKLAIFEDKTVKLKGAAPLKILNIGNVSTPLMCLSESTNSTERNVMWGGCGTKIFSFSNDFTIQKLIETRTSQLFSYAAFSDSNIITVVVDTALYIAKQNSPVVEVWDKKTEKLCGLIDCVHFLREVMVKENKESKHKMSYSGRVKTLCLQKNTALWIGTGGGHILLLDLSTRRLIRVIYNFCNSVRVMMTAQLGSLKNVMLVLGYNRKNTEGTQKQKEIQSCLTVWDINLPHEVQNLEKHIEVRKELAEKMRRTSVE

[27] = target: T6, Leucine-rich repeat serine/threonine-protein kinase 2; format: functional, subcellular, Brain, lysate; remark: listed apart in the source
[28] = target: Activin receptor type-1 (Homo sapiens, UniProt Q04771); assay: Affinity Phenotypic Cellular interaction: (Western Blot (inhibition of ALK2 catalysed phosphorylation of SMAD1/5/8, BMP branch signalling)) EUB0001184b ACVRL1; format: functional; set-up: mode of action Inhibitor, recommended concentration 1 uM

CN(C)CCOc1ccc(-c2nc(-c3ccncc3)c(-c3ccc4c(c3)CC/C4=N\O)[nH]2)cc1 [SB590885]
pIC50 [1]: 5.82 | pIC50 [2]: 5.21 | pIC50 [3]: 5.29 | pIC50 [4]: 4.96 | pIC50 [5]: 7.55 | pIC50 [6]: 7.24 | pIC50 [7]: < 4.89 | pIC50 [8]: 6.72 | pIC50 [9]: 5.96 | pIC50 [10]: 6.54

COc1cnccc1Nc1nc(-c2nn(Cc3c(F)cc(OCCO)cc3F)c3ccccc23)ncc1OC
pIC50 [11]: < 8.00

CNC(=N)NCCC[C@H](NC(=O)[C@H](CC(C)C)NC(=O)NNC(=O)[C@H](Cc1ccccc1)NC(=O)[C@H](CO)NC(=O)[C@H](CC(N)=O)NC(=O)[C@@H](Cc1cccnc1)NC(=O)[C@H](N)Cc1ccc(O)cc1)C(=O)NCC(N)=O [KISS1-543] (H-[dY][d3Pal]NSF[azaGly]L[Arg(Me)]G-NH2)
pEC50 [12]: < 5.00

Cn1cc(-n2cnc3c(NCc4nc5cc(Cl)c(Cl)cc5[nH]4)nc(N4CCOCC4)nc32)cn1
pEC50 [13]: 6.98

CCC(F)(F)c1cc(N2CCC(S(C)(=O)=O)CC2)nc2sc(C(N)=O)c(N)c12 [BI-605906]
pEC50 [14]: 6.15

Cc1n[nH]c2ncc(C(=O)N3CCC[C@H]3c3ccc(Cl)cc3)cc12
pIC50 [15]: 7.28 | pIC50 [16]: 8.05 | pIC50 [17]: 4.49

CN1CCC(F)(Cn2cnc(-c3ccc(F)cn3)c2-c2ccnc3[nH]ccc23)CC1
pIC50 [18]: 4.98 | pEC50 [19]: 6.70 | pIC50 [20]: 5.80 | pEC50 [21]: 6.70 | pIC50 [22]: 5.80 | pEC50 [23]: 6.70 | pIC50 [24]: 5.80

CC(C)(O)[C@H](F)CN1Cc2cc(NC(=O)c3cnn4cccnc34)c(N3CCOCC3)cc2C1=O
pIC50 [25]: 6.72

N#Cc1cccc(-c2c[nH]c3ncnc(N4CCOCC4)c23)c1
pIC50 [26]: 6.99 | pIC50 [27]: 7.68

COc1cc(-c2cncc(-c3ccc(N4CCN(C(C)C)CC4)cc3)c2C)cc(F)c1C(N)=O
pEC50 [28]: > 7.00

From ChEMBL document CHEMBL5444388, “Affinity Phenotypic Cellular Literature for EUbOPEN Chemogenomic Library” (2024)
